Counter-ions that a name gives are not always drawn.
The compounds below were run against PI3Kδ (p110δ/p85α) (Homo sapiens (Human), UniProt O00329) (assay: PI3Kδ Scintillation Proximity Assay (Example A3)). Conditions: not given.
Type: biochemical
From the text: Example A3: PI3Kδ Scintillation Proximity Assay
[γ-^33P]ATP (10 mCi/mL) was purchased from Perkin-Elmer (Waltham, Mass.). Lipid kinase substrate, D-myo-Phosphatidylinositol 4,5-bisphosphate (PtdIns(4,5)P2)D (+)-sn-1,2-di-O-octanoylglyceryl, 3-O-phospho linked (PIP2), CAS 204858-53-7, was purchased from Echelon Biosciences (Salt Lake City, Utah). PI3Kδ (p110δ/p85α) was purchased from Millipore (Bedford, Mass.). ATP, MgCl2, DTT, EDTA, MOPS and CHAPS were purchased from Sigma-Aldrich (St. Louis, Mo.). Wheat Germ Agglutinin (WGA) YSi SPA Scintillation Beads was purchased from GE healthcare life sciences (Piscataway, N.J.).
The kinase reaction was conducted in polystyrene 384-well matrix white plate from Thermo Fisher Scientific in a final volume of 25 μL. Inhibitors were first diluted serially in DMSO and added to the plate wells before the addition of other reaction components. The final concentration of DMSO in the assay was 0.5%. The PI3K assays were carried out at room temperature in 20 mM MOPS, pH 6.7, 10 mM MgCl2, 5 mM DTT and CHAPS 0.03%. Reactions were initiated by the addition of ATP, the final reaction mixture consisted of 20 µM PIP2, 20 µM ATP, 0.2 μCi [γ-^33P]ATP, 4 nM PI3Kδ. Reactions were incubated for 210 min and terminated by the addition of 40 μL SPA beads suspended in quench buffer: 150 mM potassium phosphate pH 8.0, 20% glycerol. 25 mM EDTA, 400 µM ATP. The final concentration of SPA beads was 1.0 mg/mL. After the plate sealing, plates were shaken overnight at room temperature and centrifuged at 1800 rpm for 10 minutes, the radioactivity of the product was determined by scintillation counting on Topcount (Perkin-Elmer). IC50 determination was performed by fitting the curve of percent control activity versus the log of the inhibitor concentration using the GraphPad Prism 3.0 software. […] IC50 data for Examples 1-25 is presented in Table 3 for PI3Kδ as determined by the assay of Example A2 or A3 as indicated

PI3Kδ (p110δ/p85α), sequence (O00329 whole entry): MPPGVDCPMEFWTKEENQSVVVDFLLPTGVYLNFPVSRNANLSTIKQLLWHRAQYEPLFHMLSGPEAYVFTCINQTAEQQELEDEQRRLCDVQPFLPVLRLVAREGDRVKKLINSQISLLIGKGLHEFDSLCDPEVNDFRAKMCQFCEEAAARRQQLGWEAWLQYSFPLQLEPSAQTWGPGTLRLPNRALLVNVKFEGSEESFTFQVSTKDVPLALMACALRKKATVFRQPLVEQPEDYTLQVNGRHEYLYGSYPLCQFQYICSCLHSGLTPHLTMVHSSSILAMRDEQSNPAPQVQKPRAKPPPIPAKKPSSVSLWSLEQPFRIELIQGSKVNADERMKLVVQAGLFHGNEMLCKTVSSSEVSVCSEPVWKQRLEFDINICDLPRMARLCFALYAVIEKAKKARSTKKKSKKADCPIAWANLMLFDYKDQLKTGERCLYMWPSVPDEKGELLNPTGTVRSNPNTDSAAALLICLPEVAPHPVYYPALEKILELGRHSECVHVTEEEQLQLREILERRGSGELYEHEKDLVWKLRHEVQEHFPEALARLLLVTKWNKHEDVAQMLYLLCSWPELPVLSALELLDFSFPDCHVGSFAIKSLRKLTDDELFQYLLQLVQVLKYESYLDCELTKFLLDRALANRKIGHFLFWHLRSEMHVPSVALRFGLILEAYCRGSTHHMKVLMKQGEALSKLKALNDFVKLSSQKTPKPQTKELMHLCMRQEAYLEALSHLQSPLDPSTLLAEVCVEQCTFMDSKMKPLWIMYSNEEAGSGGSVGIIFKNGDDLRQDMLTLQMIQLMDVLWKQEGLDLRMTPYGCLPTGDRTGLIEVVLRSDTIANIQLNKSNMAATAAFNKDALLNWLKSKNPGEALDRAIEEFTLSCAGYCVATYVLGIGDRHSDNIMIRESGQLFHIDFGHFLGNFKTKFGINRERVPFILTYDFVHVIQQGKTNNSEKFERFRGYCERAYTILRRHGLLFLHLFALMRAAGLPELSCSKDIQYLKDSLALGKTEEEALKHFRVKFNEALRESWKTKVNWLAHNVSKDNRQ
PI3Kδ (p110δ/p85α), sequence (P27986 whole entry partner): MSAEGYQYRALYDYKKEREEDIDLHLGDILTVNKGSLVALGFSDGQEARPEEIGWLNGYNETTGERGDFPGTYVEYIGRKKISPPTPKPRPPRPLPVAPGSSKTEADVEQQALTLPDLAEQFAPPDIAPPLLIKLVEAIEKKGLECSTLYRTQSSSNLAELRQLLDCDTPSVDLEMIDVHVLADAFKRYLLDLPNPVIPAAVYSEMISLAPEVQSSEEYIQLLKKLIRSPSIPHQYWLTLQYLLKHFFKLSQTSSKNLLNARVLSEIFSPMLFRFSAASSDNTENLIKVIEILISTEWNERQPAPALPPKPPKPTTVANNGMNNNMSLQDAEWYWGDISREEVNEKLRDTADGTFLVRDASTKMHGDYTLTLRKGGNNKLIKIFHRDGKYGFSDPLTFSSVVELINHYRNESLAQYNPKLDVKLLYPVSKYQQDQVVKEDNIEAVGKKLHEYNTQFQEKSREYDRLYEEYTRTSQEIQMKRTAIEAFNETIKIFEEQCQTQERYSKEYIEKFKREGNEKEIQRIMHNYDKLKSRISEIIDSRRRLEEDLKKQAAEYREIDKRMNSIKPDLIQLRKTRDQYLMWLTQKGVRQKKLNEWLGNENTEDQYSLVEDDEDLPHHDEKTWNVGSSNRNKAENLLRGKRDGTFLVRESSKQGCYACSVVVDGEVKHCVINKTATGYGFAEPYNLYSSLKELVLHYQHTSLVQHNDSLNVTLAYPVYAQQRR

Row | Compound | IC50
1 | Cc1c(Cl)cc(C(C)n2nc(C)c3c(N)ncnc32)c2c1CN(C(C)C)CCO2 (stereo not drawn) [Example 10, 1-[1-(7-Chloro-4-isopropyl-6-methyl-2,3,4,5-tetrahydro-1,4-benzoxazepin-9-yl)ethyl]-3-methyl-1H-pyrazolo[3,4-d]pyrimidin-4-amine bis(trifluoroacetate)] | ≤ 100 nM
2 | Cc1ccccc1NC(=O)N1CCOc2c(C(C)n3nc(C)c4c(N)ncnc43)cc(Cl)c(C)c2C1 (stereo not drawn) [Example 15, 9-[1-(4-Amino-3-methyl-1H-pyrazolo[3,4-d]pyrimidin-1-yl)ethyl]-7-chloro-6-methyl-N-(2-methylphenyl)-2,3-dihydro-1,4-benzoxazepine-4(5H)-carboxamide trifluoroacetate] | ≤ 100 nM
3 | Cc1noc(C)c1S(=O)(=O)N1CCOc2c(C(C)n3nc(C)c4c(N)ncnc43)cc(Cl)c(C)c2C1 (stereo not drawn) [Example 17, 1-(1-{7-Chloro-4-[(3,5-dimethylisoxazol-4-yl)sulfonyl]-6-methyl-2,3,4,5-tetrahydro-1,4-benzoxazepin-9-yl}yl)ethyl)-3-methyl-1H-pyrazolo[3,4-d]pyrimidin-4-amine trifluoroacetate] | ≤ 100 nM
4 | CC(=O)N1CCOc2c(C(C)n3nc(C)c4c(N)ncnc43)cc(Cl)c(C)c2C1 (stereo not drawn) [Example 19, 1-[1-(4-Acetyl-7-chloro-6-methyl-2,3,4,5-tetrahydro-1,4-benzoxazepin-9-yl)ethyl]-3-methyl-1H-pyrazolo[3,4-d]pyrimidin-4-amine trifluoroacetate] | ≤ 100 nM
5 | Cc1c(Cl)cc(C(C)n2nc(C)c3c(N)ncnc32)c2c1CN(c1ncc(C#N)s1)CCO2 (stereo not drawn) [Example 23, 2-[9-[1-(4-Amino-3-methyl-1H-pyrazolo[3,4-d]pyrimidin-1-yl)ethyl]-7-chloro-6-methyl-2,3-dihydro-1,4-benzoxazepin-4(5H)-yl]-1,3-thiazole-5-carbonitrile trifluoroacetate] | ≤ 100 nM

Other lines, results leading:

Row | IC50 | Compound
6 | ≤ 100 nM | Cc1c(Cl)cc(C(C)n2nc(C)c3c(N)ncnc32)c2c1CN(CC#N)CCO2 (stereo not drawn) [Example 11, [9-[1-(4-Amino-3-methyl-1H-pyrazolo[3,4-d]pyrimidin-1-yl)ethyl]-7-chloro-6-methyl-2,3-dihydro-1,4-benzoxazepin-4(5H)-yl]acetonitrile bis(trifluoroacetate)]
7 | ≤ 100 nM | Cc1c(Cl)cc(C(C)n2nc(C)c3c(N)ncnc32)c2c1CN(C(=O)CC#N)CCO2 (stereo not drawn) [Example 12, 3-[9-[1-(4-Amino-3-methyl-1H-pyrazolo[3,4-d]pyrimidin-1-yl)ethyl]-7-chloro-6-methyl-2,3-dihydro-1,4-benzoxazepin-4(5H)-yl]-3-oxopropanenitrile trifluoroacetate]
8 | ≤ 100 nM | Cc1c(Cl)cc(C(C)n2nc(C)c3c(N)ncnc32)c2c1CN(S(C)(=O)=O)CCO2 (stereo not drawn) [Example 13, 1-{1-[7-Chloro-6-methyl-4-(methylsulfonyl)-2,3,4,5-tetrahydro-1,4-benzoxazepin-9-yl]ethyl}-3-methyl-1H-pyrazolo[3,4-d]pyrimidin-4-amine trifluoroacetate]
9 | ≤ 100 nM | Cc1c(Cl)cc(C(C)n2nc(C)c3c(N)ncnc32)c2c1CN(S(=O)(=O)c1ccccc1)CCO2 (stereo not drawn) [Example 14, 1-{1-[7-Chloro-6-methyl-4-(phenylsulfonyl)-2,3,4,5-tetrahydro-1,4-benzoxazepin-9-yl]ethyl}-3-methyl-1H-pyrazolo[3,4-d]pyrimidin-4-amine trifluoroacetate]
10 | ≤ 100 nM | Cc1c(Cl)cc(C(C)n2nc(C)c3c(N)ncnc32)c2c1CN(C(=O)c1ccccc1)CCO2 (stereo not drawn) [Example 16, 1-[1-(4-Benzoyl-7-chloro-6-methyl-2,3,4,5-tetrahydro-1,4-benzoxazepin-9-yl)ethyl]-3-methyl-1H-pyrazolo[3,4-d]pyrimidin-4-amine trifluoroacetate]
11 | ≤ 100 nM | Cc1c(Cl)cc(C(C)n2nc(C)c3c(N)ncnc32)c2c1CN(S(=O)(=O)C1CC1)CCO2 (stereo not drawn) [Example 18, 1-{1-[7-Chloro-4-(cyclopropylsulfonyl)-6-methyl-2,3,4,5-tetrahydro-1,4-benzoxazepin-9-yl]ethyl}-3-methyl-1H-pyrazolo[3,4-d]pyrimidin-4-amine trifluoroacetate]
12 | ≤ 100 nM | CCC(=O)N1CCOc2c(C(C)n3nc(C)c4c(N)ncnc43)cc(Cl)c(C)c2C1 (stereo not drawn) [Example 20, 1-[1-(7-Chloro-6-methyl-4-propionyl-2,3,4,5-tetrahydro-1,4-benzoxazepin-9-yl)ethyl]-3-methyl-1H-pyrazolo[3,4-d]pyrimidin-4-amine trifluoroacetate]
13 | ≤ 100 nM | COCC(=O)N1CCOc2c(C(C)n3nc(C)c4c(N)ncnc43)cc(Cl)c(C)c2C1 (stereo not drawn) [Example 21, 1-{1-[7-Chloro-4-(methoxyacetyl)-6-methyl-2,3,4,5-tetrahydro-1,4-benzoxazepin-9-yl]ethyl}-3-methyl-1H-pyrazolo[3,4-d]pyrimidin-4-amine trifluoroacetate]
14 | ≤ 100 nM | Cc1c(Cl)cc(C(C)n2nc(C)c3c(N)ncnc32)c2c1CN(C(=O)C(C)C)CCO2 (stereo not drawn) [Example 22, 1-[1-(7-Chloro-4-isobutyryl-6-methyl-2,3,4,5-tetrahydro-1,4-benzoxazepin-9-yl)ethyl]-3-methyl-1H-pyrazolo[3,4-d]pyrimidin-4-amine trifluoroacetate]
15 | ≤ 100 nM | Cc1c(Cl)cc(C(C)n2nc(C)c3c(N)ncnc32)c2c1CN(c1cnccn1)CCO2 (stereo not drawn) [Example 24, 1-[1-(7-Chloro-6-methyl-4-pyrazin-2-yl-2,3,4,5-tetrahydro-1,4-benzoxazepin-9-yl)ethyl]-3-methyl-1H-pyrazolo[3,4-d]pyrimidin-4-amine bis(trifluoroacetate)]
16 | ≤ 100 nM | Cc1c(Cl)cc(C(C)n2nc(C)c3c(N)ncnc32)c2c1C(=O)NCCO2 (stereo not drawn) [Example 25, 9-[1-(4-Amino-3-methyl-1H-pyrazolo[3,4-d]pyrimidin-1-yl)ethyl]-7-chloro-6-methyl-3,4-dihydro-1,4-benzoxazepin-5(2H)-one trifluoroacetate]

What follows are compounds tested against PI3Kδ (Homo sapiens (Human), UniProt O00329) (assay: PI3K Enzyme Assay (Example A2), [γ-33P]ATP filter plate). Conditions: not given.
Type: biochemical
Procedure, shortened: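 Recombinant PI3Kδ at 2.9 nM with 50 µM PIP2 in MOPS pH 6.7, MgCl2, DTT, CHAPS, 0.5% DMSO; started with 1000 μM ATP including [γ-33P]ATP, 180 min at room temperature. Phosphorylated product captured on PVDF filter plates and scintillation-counted; IC50 from percent-control activity vs log concentration.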

PI3Kδ, sequence (O00329 whole entry): as the sequence (O00329 whole entry) above
PI3Kδ, sequence (P27986 whole entry partner): as the sequence (P27986 whole entry partner) above

Row | IC50 | Compound
17 | ≤ 100 nM | CC(=O)N1CC(N2Cc3c(F)c(Cl)cc(C(C)n4nc(C)c5c(N)ncnc54)c3OC(C)C2)C1 (single isomer, unassigned) [Example 28, 1-{1-[4-(1-Acetylazetidin-3-yl)-7-chloro-6-fluoro-2-methyl-2,3,4,5-tetrahydro-1,4-benzoxazepin-9-yl]ethyl}-3-methyl-1H-pyrazolo[3,4-d]pyrimidin-4-amine]
18 | ≤ 100 nM | CC(=O)N1CC(N2Cc3c(F)c(Cl)cc(C(C)n4nc(C)c5c(N)ncnc54)c3OC(C)C2)C1 (single isomer, unassigned) [Example 29, 1-{1-[4-(1-Acetylazetidin-3-yl)-7-chloro-6-fluoro-2-methyl-2,3,4,5-tetrahydro-1,4-benzoxazepin-9-yl]ethyl}-3-methyl-1H-pyrazolo[3,4-d]pyrimidin-4-amine]
19 | ≤ 100 nM | CC(=O)N1CC(N2Cc3c(F)c(Cl)cc(C(C)n4nc(C)c5c(N)ncnc54)c3OC(C)C2)C1 (single isomer, unassigned) [Example 30, 1-{1-[4-(1-Acetylazetidin-3-yl)-7-chloro-6-fluoro-2-methyl-2,3,4,5-tetrahydro-1,4-benzoxazepin-9-yl]ethyl}-3-methyl-1H-pyrazolo[3,4-d]pyrimidin-4-amine]
20 | ≤ 100 nM | CC(=O)N1CC(N2Cc3c(F)c(Cl)cc(C(C)n4nc(C)c5c(N)ncnc54)c3OC(C)C2)C1 (single isomer, unassigned) [Example 32, 1-{1-[4-(1-Acetylazetidin-3-yl)-7-chloro-6-fluoro-2-methyl-2,3,4,5-tetrahydro-1,4-benzoxazepin-9-yl]ethyl}-3-methyl-1H-pyrazolo[3,4-d]pyrimidin-4-amine]

What follows are compounds tested on SUDHL-6 cells (assay: SUDHL-6 Cell Proliferation Assay (Example B3)). Conditions: 3 days, Cell Titer-GLO.
Type: cell-based
Description: Example B3: SUDHL-6 Cell Proliferation Assay
SUDHL-6 cell line (diffuse large B cell lymphoma) was purchased from ATCC (Manassas, Va.) and maintained in the culture medium recommended (RPMI and 10% FBS). To measure the anti-proliferation activity of the compounds through ATP quantitation, the SUDHL-6 cells was plated with the culture medium (5000 cells/well/per 200 μl) into 96-well polystyrene clear black tissue culture plate (Greiner-bio-one through VWR, NJ) in the presence or absence of a concentration range of test compounds. After 3 days, Cell Titer-GLO Luminescent (Promega, Madison, Wis.) cell culture agent was added to each well for 10 minutes at room temperature to stabilize the luminescent signal. This determines the number of viable cells in culture based on quantitation of the ATP present, which signals the presence of metabolically active cells. Luminescence was measured with the TopCount 384 (Packard Bioscience through Perkin Elmer, Boston, Mass.). […] IC50 data for the Examples is presented in Table 4 determined by the assay of Example B3.

Row | IC50 | Compound
21 | ≤ 500 nM | CC(=O)N1CC(N2Cc3c(F)c(Cl)cc(C(C)n4nc(C)c5c(N)ncnc54)c3OC(C)C2)C1 (single isomer, unassigned) [Example 29, 1-{1-[4-(1-Acetylazetidin-3-yl)-7-chloro-6-fluoro-2-methyl-2,3,4,5-tetrahydro-1,4-benzoxazepin-9-yl]ethyl}-3-methyl-1H-pyrazolo[3,4-d]pyrimidin-4-amine]
22 | ≤ 500 nM | CC(=O)N1CC(N2Cc3c(F)c(Cl)cc(C(C)n4nc(C)c5c(N)ncnc54)c3OC(C)C2)C1 (single isomer, unassigned) [Example 30, 1-{1-[4-(1-Acetylazetidin-3-yl)-7-chloro-6-fluoro-2-methyl-2,3,4,5-tetrahydro-1,4-benzoxazepin-9-yl]ethyl}-3-methyl-1H-pyrazolo[3,4-d]pyrimidin-4-amine]
23 | ≤ 500 nM | CC(=O)N1CC(N2Cc3c(F)c(Cl)cc(C(C)n4nc(C)c5c(N)ncnc54)c3OC(C)C2)C1 (single isomer, unassigned) [Example 32, 1-{1-[4-(1-Acetylazetidin-3-yl)-7-chloro-6-fluoro-2-methyl-2,3,4,5-tetrahydro-1,4-benzoxazepin-9-yl]ethyl}-3-methyl-1H-pyrazolo[3,4-d]pyrimidin-4-amine]

Same assay, conditions: Homo sapiens, SU-DHL-6, 72 h, 3 days, Cell Titer-GLO

Row | IC50 | Compound
24 | ≤ 500 nM | CC(=O)N1CC(N2Cc3c(F)c(Cl)cc(C(C)n4nc(C)c5c(N)ncnc54)c3OC(C)C2)C1 (single isomer, unassigned) [Example 28, 1-{1-[4-(1-Acetylazetidin-3-yl)-7-chloro-6-fluoro-2-methyl-2,3,4,5-tetrahydro-1,4-benzoxazepin-9-yl]ethyl}-3-methyl-1H-pyrazolo[3,4-d]pyrimidin-4-amine]

Source: patent US9944646B2, “Bicyclic azaheterocyclobenzylamines as PI3K inhibitors” (Incyte Corporation, priority 2012, dated 2018)
